This is an account of results in patent US10906876B2, “Tetrahydroisoquinolines as selective NADPH oxidase 2 inhibitors” (University of Pittsburgh—Of the Commonwealth System of …, priority 2013, dated 2021).

For the assay, the target named is T1, Nox1 (Homo sapiens, UniProt Q9Y5S8).
T1 construct: Plasmids encoding full-length human cDNAs for Nox1 (pcDNA3.1-hNox1); expressed in transfected cells; host or cells: COS-22 (COS-7 stably expressing human p22phox), transient co-transfection
T1 sequence (Q9Y5S8 1-564): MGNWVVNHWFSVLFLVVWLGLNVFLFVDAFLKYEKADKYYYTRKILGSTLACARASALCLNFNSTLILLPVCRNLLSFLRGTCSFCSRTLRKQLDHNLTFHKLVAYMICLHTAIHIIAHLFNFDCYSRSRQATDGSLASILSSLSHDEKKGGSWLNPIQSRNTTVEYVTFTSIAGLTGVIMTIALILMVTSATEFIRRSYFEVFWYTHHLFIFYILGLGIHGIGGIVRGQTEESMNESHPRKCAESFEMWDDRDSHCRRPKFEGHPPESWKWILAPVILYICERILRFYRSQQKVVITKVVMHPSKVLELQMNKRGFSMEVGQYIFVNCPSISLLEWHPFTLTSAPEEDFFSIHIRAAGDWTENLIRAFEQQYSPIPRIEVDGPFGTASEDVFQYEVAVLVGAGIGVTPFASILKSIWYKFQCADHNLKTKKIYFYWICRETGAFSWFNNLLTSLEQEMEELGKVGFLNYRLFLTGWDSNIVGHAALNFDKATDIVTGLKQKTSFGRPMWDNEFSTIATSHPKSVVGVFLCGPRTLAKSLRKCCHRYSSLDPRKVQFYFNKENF
T1 sequence (P13498 2-195 partner limits assumed): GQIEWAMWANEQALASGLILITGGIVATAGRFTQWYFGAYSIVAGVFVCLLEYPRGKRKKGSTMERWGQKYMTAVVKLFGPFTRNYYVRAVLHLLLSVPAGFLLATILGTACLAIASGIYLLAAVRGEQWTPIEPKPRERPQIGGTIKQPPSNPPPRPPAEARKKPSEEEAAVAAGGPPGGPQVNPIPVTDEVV
In words: Constitutive Nox1 activity in transiently transfected COS-Nox1/NOXO1/NOXA1 cells, L-012 assay. Format: cell-based. The note with it: for Nox1 inhibitory activity: Table 2; for IC50: constitutive activity, transiently transfected Cos-Nox1 cells, L-012, read-out: IC50 of ROS generation, Nox1 (L-012 assay). The source says: Plasmids encoding full-length human cDNAs for Nox1 (pcDNA3.1-hNox1), NOXO1 (pcDNA3.1-hNOXO1), NOXA1 (pCMVsport 6-hNOXA1), p47phox (pCMV-Tag4A-hp47) and Nox4 (pcDNA3-hNox4) were kindly provided by Dr. David Lambeth (Emory University, Ga.). Plasmids encoding Nox1, NOXO1, or NOXA1 were transformed and amplified into Escherichia coli strain TOP10 (Invitrogen, Carlsbad, Calif.). Plasmids were purified using a QIAfilter plasmid purification kit (QIAGEN Inc., Valencia, Calif.). For human Nox4 expression, the BglII/NotI restriction fragment from the pcDNA3-hNox4 was subcloned into the plasmid pcDNA3.1/Hygro(−) (Invitrogen, Carlsbad, Calif.) to generate pcDNA3.1/Hygro-hNox4. The fragment sequence, in-frame insertion and orientation were validated by DNA sequencing after PCR amplification. pcDNA3.1/Hygro-hNox4 was amplified into Escherichia coli strain TOP10 and purified with a QIAfilter plasmid purification kit.
Cell transfection was carried out using Lipofectamine LTX and Plus reagent (Invitrogen, Carlsbad, Calif., USA), according to the manufacturer's instructions. COS-22 cells were transiently co-transfected with pcDNA 3.1-hNox1, pCMVsport 6-hNOXA1 and pcDNA3.1-hNoxO1 (COS-Nox1/NOXO1/NOXA1 cells) or with pcDNA3.1/Hygro-hNox4 (COS-Nox4 cells). Cells were used 24 hr after transfection. Adherent cells were harvested by incubating with 0.05% trypsin/EDTA for 5 min at 37° C. Following addition of DMEM/10% FBS to neutralize the trypsin, the cells were pelleted by centrifugation at 1100×g for 5 min at 4° C. and used for the experiments.
COS-Nox2, COS-Nox1/NOXO1/NOXA1, HEK-Nox5 and COS-22 cells were re-plated in OPTIMEM into 384-well white micro-plates (Greiner-Bio One GmbH, Germany) at a density of 2.5×10^3 cells/well for COS-Nox2 and 5×10^4 cells/well for all others. The cells were incubated at 37° C. in PBS containing […] L-012 for 10 min. Reaction was initiated by addition of 5 μM PMA in the case of Nox2 or 1 μM PMA/0.1 μM Ionomycin in the case of Nox5. Since Nox1 was constitutively active, Nox1-derived O2^•− was assessed by comparison to non-transfected cells (Cos22). Luminescence was quantified over time using a Biotek Synergy 4 Hybrid Multi-Mode Microplate Reader. The specificity of L-012 for O2^•− was confirmed by the addition of SOD (150 U/mL).
All data are expressed as means±SEM. IC50 values were determined using the GraphPad Prism software (GraphPad Software, San Diego, Calif.) for non-linear regression three-parameters, with constrain values of 100 and 0 for top and bottom, respectively, and assumes a Hill slope of 1.

Regarding `C=C(C)CC1NC2CC(C)(C)C1c1c(Br)cccc12` (racemic) [Compound 7, (±)-(1S,4R,9S)-5-Bromo-3,3-dimethyl-9-(2-methylallyl)-1,2,3,4-tetrahydro-1,4-(epimino-methano)-naphthalene], the “Nox1 inhibitory activity” value is “active” and the IC50 came out at 31 ± 0.7 µM. As to `C=C(C)CC1NC2CC(C)(C)C1c1ccccc12` (racemic) [Compound 8, (±)-(1S,4R,9S)-3,3-Dimethyl-9-(2-methylallyl)-1,2,3,4-tetrahydro-1,4-(epiminomethano)-naphthalene], the “Nox1 inhibitory activity” value was “inactive” and the IC50 was over 100 µM. With `C=C(C)CC1C2c3ccccc3C(CC2(C)C)N1Cc1cccc(F)c1` (racemic) [Compound 11a, (±)-(1S,4R,9S)-10-(3-Fluorobenzyl)-3,3-dimethyl-9-(2-methylallyl)-1,2,3,4-tetrahydro-1,4-(epiminomethano)naphthalene], the IC50 was over 100 µM. On the same count and under the same terms, the value for `C=C(C)CC1C2c3c(Br)cccc3C(CC2(C)C)N1Cc1ccnc2ccccc12` (racemic) [Compound 11b, (±)-(1S,4R,9S)-5-Bromo-3,3-dimethyl-9-(2-methylallyl)-10-(quinolin-4-ylmethyl)-1,2,3,4-tetra-hydro-1,4-(epiminomethano)naphthalene] was over 100 µM.

As for `C=C(C)CC1C2c3c(Br)cccc3C(CC2(C)C)N1Cc1c[nH]c2ccccc12` (racemic) [Compound 11c, (±)-(1S,4R,9S)-10-((1H-Indol-3-yl)methyl)-5-bromo-3,3-dimethyl-9-(2-methylallyl)-1,2,3,4-tetrahydro-1,4-(epiminomethano)naphthalene], the IC50 was over 100 µM. Still for that read-out and setting: the value for `C=C(C)CC1C2c3c(Br)cccc3C(CC2(C)C)N1Cc1ccc2c(c1)OCO2` (racemic) [Compound 11d, (±)-(1S,4R,9S)-10-(Benzo[d][1,3]dioxol-5-ylmethyl)-5-bromo-3,3-dimethyl-9-(2-methylallyl)-1,2,3,4-tetrahydro-1,4-(epiminomethano)naphthalene] was over 100 µM; that for `C=C(C)CC1C2c3c(Br)cccc3C(CC2(C)C)N1Cc1cc(C)on1` (racemic) [Compound 11e, (±)-3-(1S,4R,9S)-5-Bromo-3,3-dimethyl-9-(2-methylallyl)-1,2,3,4-tetrahydro-1,4-(epimino-methano) naphthalen-10-yl)methyl)-5-methylisoxazole] was over 100 µM. Same read-out and setting: the value for `C=C(C)CC1C2c3c(Br)cccc3C(CC2(C)C)N1Cc1cccc(F)c1` (racemic) [Compound 11f, (±)-(1S,4R,9S)-5-Bromo-10-(3-fluorobenzyl)-3,3-dimethyl-9-(2-methylallyl)-1,2,3,4-tetrahydro-1,4-(epiminomethano)naphthalene] was over 100 µM.

In the case of `C=C(C)CC1C2c3c(Br)cccc3C(CC2(C)C)N1CCCCC` (racemic) [Compound 11g, (±)-(1S,4R,9S)-5-Bromo-3,3-dimethyl-9-(2-methylallyl-10-pentyl-1,2,3,4-tetrahydro-1,4-(epiminomethano)naphthalene], the “Nox1 inhibitory activity” value was “virtually no effect” and the IC50 was over 100 µM. Take `C=C(C)CC1C2c3c(Br)cccc3C(CC2(C)C)N1Cc1cccs1` (racemic) [Compound 11h, (±)-(1S,4R,9S)-5-Bromo-3,3-dimethyl-9-(2-methylallyl)-10-(thiophen-2-ylmethyl)-1,2,3,4-tetrahydro-1,4-(epiminomethano)naphthalene]: the “Nox1 inhibitory activity” value was “virtually no effect” and the IC50 is over 100 µM. Regarding `C=C(C)CC1NC2CC(C)(C)C1c1c(-c3ccc(Cl)c(Cl)c3)cccc12` (racemic) [Compound 12a, (±)-(1S,4R,9S)-5-(3,4-Dichlorophenyl)-3,3-dimethyl-9-(2-methylallyl)-1,2,3,4-tetrahydro-1,4-(epiminomethano)naphthalene], the IC50 is over 100 µM. For the compound `C=C(C)CC1C2c3c(-c4ccc(Cl)c(Cl)c4)cccc3C(CC2(C)C)N1Cc1ccc2c(c1)OCO2` (racemic) [Compound 12b, (±)-(1S,4R,9S)-10-(Benzo[d][1,3]dioxol-5-ylmethyl)-5-(3,4-dichlorophenyl)-3,3-dimethyl-9-(2-methylallyl)-1,2,3,4-tetrahydro-1,4-(epiminomethano)-naphthalene], the IC50 is over 100 µM. `C=C(C)CC1C2c3c(-c4ccc(Cl)c(Cl)c4)cccc3C(CC2(C)C)N1CCCCC` (racemic) [Compound 12c]: the IC50 is over 100 µM. As for `CC(C)CC1NC2CC(C)(C)C1c1c(Br)cccc12` (racemic) [Compound 13], the “Nox1 inhibitory activity” value is “retained inhibitory activity” and the IC50 turned out to be 32 ± 18 µM. On to `C=C(C)CC1C2c3c(Br)cccc3C(CC2(C)C)N1S(C)(=O)=O` (racemic) [Compound 14a, (±)-(1S,4R,9S)-5-Bromo-3,3-dimethyl-9-(2-methylallyl)-10-(methylsulfonyl)-1,2,3,4-tetrahydro-1,4-(epiminomethano)naphthalene], for which the IC50 is over 100 µM. Same read-out and setting: the value for `C=C(C)CC1C2c3c(Br)cccc3C(CC2(C)C)N1S(=O)(=O)c1ccc(F)cc1` (racemic) [Compound 14b, (±)-(1S,4R,9S)-5-Bromo-10-((4-fluorophenyl)sulfonyl)-3,3-dimethyl-9-(2-methylallyl)-1,2,3,4-tetrahydro-1,4-(epiminomethano)naphthalene] was over 100 µM. As for `C=C(C)C[C@@H]1N[C@H]2CC(C)(C)[C@@H]1c1c(Br)ccc(Br)c12` [Compound 9], the “Nox1 inhibitory activity” value is reported as “active” and the IC50 stood at 60 ± 36 µM.
